In PMC9266368, “Synthesis and Biological Evaluation of Small Molecules as Potential Anticancer Multitarget Agents” (International Journal of Molecular Sciences, 2022):

How the values were obtained:
[1] = test system: HT-29 (colon adenocarcinoma); test: MTT cell viability assay, HT-29; type: cell-based; conditions: Homo sapiens, HT-29, 48 h, 2 days incubation, average ±SD of three experiments
Procedure: (§1) The effects of triazole derivatives 1–26 on the cell viability were determined by MTT assay, and the IC50 values were determined toward the human tumor cell lines HT-29 (colon adenocarcinoma), A-549 (lung adenocarcinoma), and MCF-7 (breast adenocarcinoma), as well as toward the non-tumor cell line HEK-293 (human embryonic kidney cells).
(§2) In 96-well plates, 3 × 10^3 (A549 and HEK-293) or 5 × 10^3 (HT-29, MCF-7) cells per well were incubated with serial dilutions of the tested compounds in a total volume of 100 μL of their growth media. The 3-(4,5-dimethylthiazol-2-yl)-2,5-diphenyltetrazolium bromide (MTT; Sigma Chemical Co.) dye reduction assay in 96-well microplates was used. After 2 days of incubation (37 °C, 5% CO2 in a humid atmosphere), 10 μL of MTT (5 mg/mL in phosphate-buffered saline, PBS) was added to each well, and the plate was incubated for a further 3 h (37 °C). After that, the supernatant was discarded and replaced by 100 µL of DMSO to dissolve formazan crystals. The absorbance was then read at 550 nm by spectro-photometry. For all concentrations of compound, cell viability was expressed as the percentage of the ratio between the mean absorbance of treated cells and the mean absorbance of untreated cells. Three independent experiments were performed, and the IC50 values (i.e., concentration half inhibiting cell proliferation) were graphically determined by using GraphPad Prism 4 software (2019).

[2] = test system: A-549 (lung adenocarcinoma); test: MTT cell viability assay, A-549; type: cell-based; conditions: Homo sapiens, A549, 48 h, 2 days incubation, average ±SD of three experiments
Procedure: as §1, §2

[3] = test system: MCF-7 (breast adenocarcinoma); test: MTT cell viability assay, MCF-7; type: cell-based; conditions: Homo sapiens, MCF7, 48 h, 2 days incubation, average ±SD of three experiments
Procedure: as §1, §2

[4] = test system: HEK-293 (human embryonic kidney cells); test: MTT cell viability assay, HEK-293; type: cell-based; conditions: HEK293, 48 h, 2 days incubation, non-tumor cell line, average ±SD of three experiments
Procedure: as §1, §2

membrane PD-L1 (mPD-L1) = molecular target: T1, membrane PD-L1 (mPD-L1) (Homo sapiens, UniProt Q9NZQ7); test: Membrane PD-L1 relative quantification by flow cytometry; type: cell-based; conditions: 24 h, 100 or 10 μM (Table 7), percentage referred to DMSO control
T1 construct: endogenous in cells; host or cells: HT-29, A-549, MCF-7
T1 sequence (Q9NZQ7 19-290): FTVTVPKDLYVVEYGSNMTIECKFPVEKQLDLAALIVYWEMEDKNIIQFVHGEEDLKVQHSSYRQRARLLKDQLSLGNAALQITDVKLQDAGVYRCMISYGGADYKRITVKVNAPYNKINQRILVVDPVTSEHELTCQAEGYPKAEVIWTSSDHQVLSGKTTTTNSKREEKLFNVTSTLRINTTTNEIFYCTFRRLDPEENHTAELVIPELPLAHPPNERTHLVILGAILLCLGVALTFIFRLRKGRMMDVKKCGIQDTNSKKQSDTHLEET
Procedure: Based on antiproliferative activity of synthetized derivatives, we decided to study the effect of the amino derivatives 14–26 on the expression of both membrane targets PD-L1 and VEGFR-2 (mPD-L1 and mVEGFR-2). The evaluation was performed on three cancer cell lines (HT-29, A-549, and MCF-7) by flow cytometry after 24 h of treatment with the corresponding compounds. Compounds were used at a 100 or 10 μM concentration depending on their IC50 value (see Table 1 in Materials and Methods section). The presence of both targets in the membrane was relatively determined by using DMSO-treated cells as a negative control.
(§3) To study the effect of the compounds on every biological target in cancer cell lines the compounds were used at a 100 or 10 μM dose, depending on their IC50 and the treated cell line.
(§4) For the assay, 10^5 cells per well were incubated for 24 h with the corresponding dose of the tested compound in a total volume of 500 μL of their growth media.
To detect membrane PD-L1 and VEGFR-2, after the cell treatments, they were collected, fixed with 4% in PBS paraformaldehyde, and stained with FITC Mouse monoclonal Anti-Human VEGFR-2 (ab184903) and Alexa Fluor® 647 Rabbit monoclonal Anti-PD-L1 (ab215251).

total PD-L1 (tPD-L1) = molecular target: T2, total PD-L1 (tPD-L1) (Homo sapiens, UniProt Q9NZQ7); test: Total PD-L1 relative quantification by flow cytometry; type: cell-based; conditions: for tPD-L1 relative detection, A-549 / tPD-L1 relative detection, HT-29 / tPD-L1 relative detection, MCF-7: 24 h, 100 or 10 μM (Table 7), relative to DMSO control
T2 construct: endogenous in cells; host or cells: HT-29, A-549, MCF-7
T2 sequence (Q9NZQ7 19-290): as above
Procedure: (§5) The study was carried out again on HT-29, A-549, and MCF-7 cell lines by flow cytometry after 24 h of treatment with the corresponding compounds. The presence of the targets in the whole cell were relatively determined by using DMSO-treated cells as a negative control and BMS-8 as a positive one for PD-L1 (Table 3).
as §3, §4
(§6) For the detection of total PD-L1, VEGFR-2, and c-Myc, the procedure was the same as for membrane targets, but after fixation, a treatment with 0,5% in PBS TritonTM X-100 was performed. The antibodies used for PD-L1 and VEGFR-2 were the ones previously described, and for the detection of c-Myc, it was FITC Rabbit monoclonal anti-c-Myc (ab223913).

c-Myc = c-Myc relative quantification by flow cytometry; type: cell-based, human; conditions: for c-Myc relative detection, A-549 / c-Myc relative detection, HT-29 / c-Myc relative detection, MCF-7: 24 h, 100 or 10 μM (Table 7), relative to DMSO control
Procedure: as §5, §3, §4, §6

[5] = test system: HT-29 cells co-cultured with Jurkat T cells; test: Co-culture HT-29 + PD-1 Jurkat T cells: living HT-29 cells; type: cell-based, human; conditions: 100 μM, 24 h; related to non-treated samples
Procedure: (§7) Cellular PD-1/PD-L1 blocking activity was studied in a co-culture system with PD-1 Jurkat T cells stimulated by interferon γ and PD-L1-expressing cancer cells. Thereby, we selected chloro derivatives 21–23 to study the proliferation of cancer cells co-cultured in the presence of PD-1 expressing Jurkat T cells in order to evaluate whether the observed PD-L1 inhibition is translated to the blockage of PD-1/PD-L1 system. […] Thus, tumor cells HT-29 were treated for 24 h with the selected compounds at 100 μM in the presence of Jurkat T cells and then living cells were counted by using cytometry and a Neubauer chamber.

Jurkat T cells = test: Co-culture HT-29 + PD-1 Jurkat T cells: living Jurkat cells; type: cell-based; conditions: 100 μM, 24 h; related to non-treated samples
Procedure: as §7

PD-L1 = molecular target: T3, PD-L1 (Homo sapiens, UniProt Q9NZQ7); test: Protein thermal shift (PTS) assay; type: binding
T3 construct: purchased ab167713
T3 sequence (Q9NZQ7 19-290): as above
From the text: This assay measures the melting point (Tm) of the target protein which is a proxy of its stability that can be altered by the binding of a ligand. A change in the melting point relative to the unliganded form implies that a ligand has bound itself to the targeted protein. According to the fundamentals of this technique, an increase in Tm means that the binding of the ligand leads to a stabilization of the target protein, while a decrease in Tm is probably due to the fact that the binding between the ligand and its target leads to a destabilization of the protein. In this case, the tested compounds were able to change the PD-L1 melting temperature.
PTS assay was performed by following the instructions indicated in Protein Thermal ShiftTM Dye Kit (Applied Biosystems reference 4461146), using 2 μL of a 0.1 mg/mL of an aqueous solution of PD-L1 (reference ab167713) and 1.5 μL of a 0.1 mg/mL aqueous solution of the corresponding product. The melting curves were registered by a StepOneTM Real-Time PCR System.

[6] = molecular target: T4, membrane VEGFR-2 (mVEGFR-2) (Homo sapiens, UniProt P35968); test: Membrane VEGFR-2 relative quantification by flow cytometry; type: cell-based; conditions: 24 h, 100 or 10 μM (Table 7), sorafenib 10 μM, percentage referred to DMSO control
T4 construct: endogenous in cells; host or cells: HT-29, A-549, MCF-7
T4 sequence (P35968 20-1356): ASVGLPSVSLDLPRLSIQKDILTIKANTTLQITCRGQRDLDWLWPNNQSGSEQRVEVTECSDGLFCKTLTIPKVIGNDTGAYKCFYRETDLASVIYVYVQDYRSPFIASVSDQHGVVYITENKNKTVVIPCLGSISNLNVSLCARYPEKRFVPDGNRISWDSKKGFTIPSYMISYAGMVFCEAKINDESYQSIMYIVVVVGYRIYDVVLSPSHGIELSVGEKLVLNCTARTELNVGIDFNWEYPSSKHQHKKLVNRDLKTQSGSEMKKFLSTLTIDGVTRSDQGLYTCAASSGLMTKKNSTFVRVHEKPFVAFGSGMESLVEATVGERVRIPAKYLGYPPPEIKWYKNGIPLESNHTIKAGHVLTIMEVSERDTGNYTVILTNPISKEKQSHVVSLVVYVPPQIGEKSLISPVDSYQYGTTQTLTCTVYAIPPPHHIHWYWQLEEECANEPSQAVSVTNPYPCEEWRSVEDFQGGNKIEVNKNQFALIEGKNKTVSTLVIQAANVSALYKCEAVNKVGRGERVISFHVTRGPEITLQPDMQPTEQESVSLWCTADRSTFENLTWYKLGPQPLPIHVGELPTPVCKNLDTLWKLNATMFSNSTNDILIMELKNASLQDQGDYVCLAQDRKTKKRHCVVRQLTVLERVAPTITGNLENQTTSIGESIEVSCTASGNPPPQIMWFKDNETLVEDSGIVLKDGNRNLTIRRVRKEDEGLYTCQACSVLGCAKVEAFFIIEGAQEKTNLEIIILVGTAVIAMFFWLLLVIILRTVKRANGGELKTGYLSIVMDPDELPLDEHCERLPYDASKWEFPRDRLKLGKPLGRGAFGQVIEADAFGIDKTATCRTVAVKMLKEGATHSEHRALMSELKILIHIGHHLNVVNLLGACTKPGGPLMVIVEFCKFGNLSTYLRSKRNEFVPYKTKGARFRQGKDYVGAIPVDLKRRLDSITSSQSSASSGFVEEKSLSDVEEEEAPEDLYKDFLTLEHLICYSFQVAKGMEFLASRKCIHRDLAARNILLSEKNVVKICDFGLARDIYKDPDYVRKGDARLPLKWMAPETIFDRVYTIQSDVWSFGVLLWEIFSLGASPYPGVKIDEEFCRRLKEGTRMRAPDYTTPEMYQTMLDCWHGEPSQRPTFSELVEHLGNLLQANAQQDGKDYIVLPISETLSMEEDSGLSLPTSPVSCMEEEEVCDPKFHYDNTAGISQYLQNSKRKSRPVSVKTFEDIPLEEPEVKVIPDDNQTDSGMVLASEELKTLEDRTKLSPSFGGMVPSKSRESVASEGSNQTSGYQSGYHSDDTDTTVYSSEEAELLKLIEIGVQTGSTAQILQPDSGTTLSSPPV
Procedure: The presence of both targets in the membrane was relatively determined by using DMSO-treated cells as a negative control.
as §4

[7] = HT-29, compared to non-treated cells

| Compound | IC50 [1] | IC50 [2] | IC50 [3] | mPD-L1 relative detection, A-549 (membrane PD-L1 (mPD-L1)) | mPD-L1 relative detection, HT-29 (membrane PD-L1 (mPD-L1)) | mPD-L1 relative detection, MCF-7 (membrane PD-L1 (mPD-L1)) | tPD-L1 relative detection, A-549 (total PD-L1 (tPD-L1)) | tPD-L1 relative detection, HT-29 (total PD-L1 (tPD-L1); HT-29) | tPD-L1 relative detection, MCF-7 (total PD-L1 (tPD-L1)) | mVEGFR-2 relative detection, A-549 [6] | mVEGFR-2 relative detection, HT-29 [6] | mVEGFR-2 relative detection, MCF-7 [6] | melting point | Inhibition of total PD-L1, A-549 (total PD-L1 (tPD-L1); compared to non-treated cells) | IC50 [4] | c-Myc relative detection, A-549 (c-Myc) | c-Myc relative detection, HT-29 (c-Myc; HT-29) | c-Myc relative detection, MCF-7 (c-Myc; MCF-7) | Inhibition of c-Myc, A-549 (c-Myc; compared to non-treated cells) | further results |
| --- | --- | --- | --- | --- | --- | --- | --- | --- | --- | --- | --- | --- | --- | --- | --- | --- | --- | --- | --- | --- |
| Cc1c(COc2ccc(CN3CCCCC3C(=O)O)cc2Br)cccc1-c1ccccc1 (centres unmarked) [BMS-8, reference compound] | 19 ± 2 µM | 6 ± 1 µM | 20 ± 3 µM | 99 ± 10% | 95 ± 12% | 90 ± 8% | 66 ± 8% | 62 ± 3% | 68 ± 5% | – | – | – | – | – | 60 ± 10 µM | 135 ± 15% | 99 ± 7% | 60 ± 7% | – | Relative number of living HT-29 cells in co-culture with Jurkat T [5]: 51 ± 8%; Relative number of living Jurkat cells in co-culture with HT-29 (Jurkat T cells): 110 ± 4%; PTS Tm (PD-L1; PD-L1 melting temperature, DMSO 34 °C): 38 °C; PTS ΔTm (PD-L1; shift of PD-L1 melting temperature vs DMSO): +4 °C |
| COc1cccc(Cn2cc(-c3ccc(N)cc3)nn2)c1 [Compound 19, 4-(1-(3-methoxybenzyl)-1H-1,2,3-triazol-4-yl)aniline] | > 100 µM | > 100 µM | 12 ± 5 µM | >100% | >100% | 96 ± 5% | >100% | 85 ± 17% | >100% | >100% | 94 ± 1% | >100% | 103 to 105 °C | – | > 100 µM | >100% | >100% | 55 ± 5% | – | – |
| COc1ccc(Cn2cc(-c3ccc(N)cc3)nn2)cc1 [Compound 20, 4-(1-(4-methoxybenzyl)-1H-1,2,3-triazol-4-yl)aniline] | > 100 µM | > 100 µM | 6 ± 4 µM | 95 ± 8% | >100% | 91 ± 9% | 54 ± 6% | 67 ± 3% | >100% | >100% | 92 ± 14% | >100% | 132 to 134 °C | ~50% | > 100 µM | 69 ± 9% | 74 ± 23% | 62 ± 7% | around 30% | Inhibition/downregulation of total PD-L1, HT-29 (total PD-L1 (tPD-L1); [7]): around 35%; Inhibition of c-Myc, HT-29 (c-Myc; [7]): around 30%; Inhibition of c-Myc, MCF-7 (c-Myc; MCF-7): around 30% |

The next lines start with results.

| IC50 [1] | IC50 [2] | IC50 [3] | mPD-L1 relative detection, A-549 (membrane PD-L1 (mPD-L1)) | mPD-L1 relative detection, HT-29 (membrane PD-L1 (mPD-L1)) | mPD-L1 relative detection, MCF-7 (membrane PD-L1 (mPD-L1)) | tPD-L1 relative detection, A-549 (total PD-L1 (tPD-L1)) | tPD-L1 relative detection, HT-29 (total PD-L1 (tPD-L1); HT-29) | tPD-L1 relative detection, MCF-7 (total PD-L1 (tPD-L1)) | mVEGFR-2 relative detection, A-549 [6] | mVEGFR-2 relative detection, HT-29 [6] | mVEGFR-2 relative detection, MCF-7 [6] | melting point | Inhibition of total PD-L1, A-549 (total PD-L1 (tPD-L1); compared to non-treated cells) | Compound | IC50 [4] | c-Myc relative detection, A-549 (c-Myc) | c-Myc relative detection, HT-29 (c-Myc; HT-29) | c-Myc relative detection, MCF-7 (c-Myc; MCF-7) | Inhibition of c-Myc, A-549 (c-Myc; compared to non-treated cells) | further results |
| --- | --- | --- | --- | --- | --- | --- | --- | --- | --- | --- | --- | --- | --- | --- | --- | --- | --- | --- | --- | --- |
| 3.7 µM | 0.45 µM | 5 ± 1 µM | 88 ± 12% | 86 ± 11% | 91 ± 10% | 56 ± 7% | 45 ± 3% | >100% | >100% | 84 ± 8% | >100% | 133 to 134 °C | ~50% | Nc1ccc(-c2cn(Cc3ccccc3Br)nn2)cc1 [Compound 24, 4-(1-(2-bromobenzyl)-1H-1,2,3-triazol-4-yl)aniline] | > 100 µM | >100% | >100% | 57 ± 8% | – | – |
| 14 ± 6 µM | 8 ± 2 µM | 8 ± 1 µM | 76 ± 4% | 94 ± 15% | 84 ± 23% | 80 ± 12% | 51 ± 2% | >100% | >100% | 85 ± 7% | >100% | 169 to 170 °C | – | Nc1ccc(-c2cn(Cc3ccc(Br)cc3)nn2)cc1 [Compound 26, 4-(1-(4-bromobenzyl)-1H-1,2,3-triazol-4-yl)aniline] | > 100 µM | 82 ± 4% | >100% | 64 ± 6% | 20% | – |
